For data set [1], the system named is viral mRNA, vRNA and protein expression, rY40F-WSN virus. Format: cell-based, influenza A virus.
The subject of data set [2] is influenza A/WSN/33 virus. The experiment in a line: microbe, parasite or virus in culture. It is filed as cell-based, influenza A virus (H1N1). The conditions noted are these: for IC50: Influenza A virus, H1N1|WSN, A549, 24 h.
Data set [3] concerns A/Panama/2007/1999 (H3N2). The experiment in a line: microbe, parasite or virus in culture. Particulars: for IC50: Influenza A virus, H3N2, A549. Format: cell-based, influenza A virus.
The test system of data set [4] is NP (A/WSN/33 infected A549 cells). It is filed as cell-based, influenza A virus.
For data set [5], the system named is influenza A/WSN/33 virus. The experiment in a line: microbe, parasite or virus in culture. It is filed as cell-based, influenza A virus (H1N1). Particulars: MDCK.
Data set [6] deals with A/Puerto Rico/8/1934 (H1N1). The experiment in a line: microbe, parasite or virus in culture. Format: cell-based, influenza A virus. Particulars: for IC50: Influenza A virus, H1N1, A549, 24 h.
In data set [7] the test system is A/Brisbane/59/2007-S (oseltamivir sensitive). The experiment in a line: microbe, parasite or virus in culture. Format: cell-based. The conditions noted are these: Influenza A virus, H1N1, A549, 24 h.
In data set [8] the test system is A/Vietnam/1203/2004 (H5N1). The experiment in a line: microbe, parasite or virus in culture. It is filed as cell-based, influenza A virus. The conditions noted are these: for IC50: Influenza A virus, H5N1, A549.
The next data set concerns B/Yamagata/16/1988. The experiment in a line: microbe, parasite or virus in culture. Format: cell-based. Particulars: Influenza B virus, MDCK.
Data set [9] concerns influenza A/WSN/33 virus. Format: cell-based.
Data set [10] concerns NP (A/WSN/33 infected A549 cells). Format: cell-based, influenza A virus. This is another data set of the same source.
In data set [11] the test system is A/Vietnam/1203/2004 (H5N1-Halo) GFP virus. The experiment in a line: microbe, parasite or virus in culture. It is filed as cell-based, influenza A virus. The conditions noted are these: for IC50: Influenza A virus, H5N1, read-out: H5N1 IC50.
The test system of the next data set is B/Brisbane/60/2008. The experiment in a line: microbe, parasite or virus in culture. It is filed as cell-based. The conditions noted are these: Influenza B virus, MDCK, 24 h.
A further data set concerns A/Wyoming/03/2003 (H3N2). The experiment in a line: microbe, parasite or virus in culture. It is filed as cell-based. Particulars: Influenza A virus, H3N2, A549, 24 h.
Data set [12] deals with A/California/04/2009 (H1N1). The experiment in a line: microbe, parasite or virus in culture. Format: cell-based, influenza A virus. Particulars: for IC50: Influenza A virus, H1N1, A549.
Data set [13] has as its system viral mRNA, vRNA and protein expression, A/WSN/33. It is filed as cell-based, influenza A virus.
In data set [14] the test system is A/Puerto Rico/8/1934 (H1N1) virus expressing GFP. The experiment in a line: microbe, parasite or virus in culture. It is filed as cell-based, influenza A virus. The conditions noted are these: for IC50: Influenza A virus, H1N1, read-out: PRS IC50.
Data set [15] relates to purified recombinant wild-type WSN NP protein. Format: biochemical, influenza A/WSN/33 virus.
Data set [16] is described as follows: in vitro. Particulars: dog.
In data set [17] the test system is vesicular stomatitis virus (VSV). Format: cell-based.
In a further data set the test system is PR8-GFP virus. It is filed as cell-based, influenza A virus.
Data set [18] is described as follows: in vitro. The conditions noted are these: human.

Values joined by “and” are separate entries in the source; they are usually repeats but may differ in a detail not shown here. Identical values can stand only once. “Also recorded” adds a separate entry of the source.

For orientation: IC50 means the concentration that inhibits the measured activity by half. As to `CC(C)(C)c1ccc(C(=O)Nc2ccc(NC(=O)c3ccc(C(C)(C)C)cc3)cc2)cc1` [S119, N,N′-(1,4-Phenylene)bis(4-(tert-butyl)benzamide)], the “inhibition of transcription and replication of rY40F-WSN virus” value in data set [1] is reported as “completely resistant”. In the data set on influenza A/WSN/33 virus [2], the “reduction in WSN viral titers” value is 4 log and 0.02 µM corresponded to half-maximal inhibition (IC50). In data set [3], the “activity against strain” value is on record as “ineffective” and the IC50 was above 50 µM. Moreover, in data set [4], the “effect on NP oligomer size” value is on record as “shift to smaller oligomers” and the “effect on low molecular weight NP pool” value is on record as “distinct loss”. In addition, in the data set on influenza A/WSN/33 virus [5], the IC50 is 0.06 µM. Further, in data set [6], the “activity against strain” value was “ineffective” and the concentration for half-maximal inhibition (IC50) was above 50 µM. In addition, the IC50 in data set [7] is above 50 µM. In addition, in [8], the “activity against strain” value is given as “ineffective” and the IC50 was above 50 µM. The compound further yielded an IC50 in the data set on B/Yamagata/16/1988 above 50 µM. Besides, in the data set with influenza A/WSN/33 virus [9], the “effect on viral titer when added at 6 h after infection” value is recorded as 1 log; the “virus inhibition when added 4 h after infection” value is listed as “significant virus inhibition”; the “virus inhibition when added before infection and up to 2 h after infection” value was “maximally inhibit”. Also, in [10], the NP localization result is listed as “NP translocation to the nucleus was delayed” and the “time of appearance of NP aggregates” value is given as “not until the 24 h post-infection time point”. In [11], the “antiviral activity on screened strain” value is given as “no detectable antiviral activity” and the IC50 was above 50 µM. Moreover, the IC50 in the data set on B/Brisbane/60/2008 was above 50 µM. The “Cytotoxicity” value in the data set on A549 cells (A549 cells, concentrations as high as 500 μM) is on record as “very little toxicity”. Further, the IC50 with A/Wyoming/03/2003 (H3N2) was above 50 µM. In [12], the “reduction in infectious titer” value is on record as 77% and the half-inhibitory concentration (IC50) was 27.4 µM. Also, in data set [13], the NP protein levels result is “moderately reduced”, the NS1 protein expression entry is “unaffected”, the “mRNA expression from the NP segment” value is reported as “severely reduced” and the “mRNA expression from the NS segment” value is given as “slightly reduced”. In addition, in [13], the “mRNA expression from the PB2 segment” value was “reduced to undetectable levels” and the “vRNA from any segment” value is “could not be detected”. In [14], the “antiviral activity on screened strain” value was “no detectable antiviral activity” and the IC50 was above 50 µM. In data set [15], the “effect on NP oligomer ladder / low molecular weight band” value is “low molecular weight band is completely lost” and the “effect on low molecular weight NP band” value was “low molecular weight NP band is lost”.

In the case of `CC(C)(C)c1ccc(NC(=O)c2ccc(C(C)(C)C)cc2)cc1` [S119-2, 4-(tert-butyl)-N-(4-(tert-butyl)phenyl)benzamide], the IC50 turned out to be 44.5 µM in [11] and 13.9 µM in data set [14].

Consider `CC(C)(C)c1ccc(C(=O)Nc2ccc(Oc3ccccc3)cc2)cc1` [S119-3, 4-(tert-butyl)-N-(4-phenoxyphenyl)benzamide], for which the IC50 came to 17.4 µM in [11] and 11.4 µM in data set [14].

`CC(C)(C)c1ccc(C(=O)Nc2cccc(NC(=O)c3ccc(C(C)(C)C)cc3)c2)cc1` [S119-6, N,N′-(1,3-phenylene)bis(4-(tert-butyl)benzamide)]: the IC50 in data set [11] and in data set [14] was above 50 µM in each case.

Consider `CC(C)(C)c1ccc(C(=O)Nc2ccc(Nc3ccccc3)cc2)cc1` [S119-8, 4-(tert-butyl)-N-(4-(phenylamino)-phenyl)benzamide], for which the IC50 with influenza A/WSN/33 virus [2] stood at 1.43 µM; in data set [3], 6.43 µM; in data set [6] it was 6.05 µM; in data set [7], 6.68 µM; in data set [8], 7.94 µM; with B/Yamagata/16/1988 it was 2.08 µM. Besides, the IC50 in [11] stood at 8.42 µM; in the data set with B/Brisbane/60/2008, 15.2 µM; with A/Wyoming/03/2003 (H3N2), 11.5 µM; in data set [12] it was 5.32 µM; in [14] it was 6.05 µM. Moreover, the CC50 is above 50 µM in the data set “in vitro [16]”, 40.7 µM in the data set on A549 cells (human), above 50 µM in the data set “in vitro [18]” (CC50) and 66.1 µM in the data set “in vitro [18]” (CC50 (50% cytotoxic concentration)). Moreover, the “inhibition of VSV” value in data set [17] is on record as “did not inhibit; also recorded: does not inhibit”. Also, the combination index in the data set on PR8-GFP virus is 0.79 and 0.57. The “type of interaction” value in the data set with PR8-GFP virus is reported as “synergistic; also recorded: additive to slightly synergistic”.

For `Cc1onc(-c2ccccc2)c1C(=O)N1CCN(c2ccc([N+](=O)[O-])cc2Cl)CC1` [nucleozin, reference compound], the “inhibition of transcription and replication of rY40F-WSN virus” value in data set [1] is listed as “efficient inhibition”. Further, in data set [4], the “effect on NP oligomer size” value is given as “shift to smaller oligomers” and the “effect on low molecular weight NP pool” value was “distinct loss”. In addition, in data set [10], the NP localization result is “NP remains exclusively in the cytoplasm” and the “time of appearance of NP aggregates” value is listed as “visible aggregates by 4 h post-infection”. For the same compound, the “mRNA, vRNA and viral protein expression from PB2, NP and NS segments” value in data set [13] was “complete loss”. Besides, in data set [15], the “effect on NP oligomer ladder / low molecular weight band” value is recorded as “oligomer ladder becomes a smear” and the “effect on low molecular weight NP band” value is “low molecular weight NP band is lost”.

These data come from article PMC6145453 (ACS infectious diseases, 2018).
